The source of these data is patent EP0156233A2, “Use of leukotriene antagonists for producing cytoprotective pharmaceutical compositions and process for producing cytoprotective pharmaceutical compositions” (Merck & Co., Inc., priority 1984, dated 1985).

This assay deals with S.D. rats. The assay can be described thus: Indomethacin-Induced Ulcer Assay (assay B). The format is in vivo. Particulars: 15 min prior to indomethacin 10 mg/kg p.o., 24 hr. fasted rats, sacrificed four hours later. How it is done: B. Indomethacin-Induced Ulcer Assay
Indomethacin, 10 mg/kg p.o., is used to induce ulcers in 24 hr. fasted S.D. rats. Fifteen minutes prior to indomethacin administration, groups of rats each receive either an aqueous vehicle (5% wt. methylcellulose) or the test compound at various doses perorally. Four hours later the animals are sacrificed and stomach mucosae are examined for resulting ulcers.
Following the procedure of assay B (Indomethacin-Induced Ulcer Assay), various compounds were tested for ulcer inhibition.

As for `CCCc1c(OCCCS(=O)(=O)c2ccc([C@H](O)[C@@H](C)CC(=O)O)cc2)ccc(C(C)=O)c1O` (relative stereo) [Example 77, (Beta S^*, gamma R^*) sodium 4-(3-(4-acetyl-3-hydroxy-2-propylphenoxy)propylsulfonyl)-gamma-hydroxy-beta-methylenzenebutanoate], the “% Inhib.” value (Dose 30 mg/kg p.o.) was found to be 46.5%.

Consider `CCCc1c(OCCCS(=O)(=O)c2ccc(C(=O)CCC(=O)O)cc2)ccc(C(C)=O)c1O` [Example 29, 4-(3-(4-Acetyl-3-hydroxy-2-propylphenoxy)-propylsulfonyl)-gamma-oxobenzenebutanoic acid], for which the “% Inhib.” value (Dose 30 mg/kg p.o.) was 78.9%.

As for `CCCc1c(OCCCOc2ccc([C@H](O)[C@@H](C)CC(=O)[O-])cc2)ccc(C(C)=O)c1O.[Na+]` (relative stereo) [Example 103, Sodium (beta S^*, gamma R^*) 4-(3-(4-acetyl-3-hydroxy-2-propylphenoxy)propyloxy)-gamma-hydroxy-beta-methylbenzenebutanoate], the “% Inhib.” value (Dose 0.1 mg/kg p.o.) turned out to be 61.1%, the “% Inhib.” value (Dose 1 mg/kg p.o.) came to 76.1% and the “% Inhib.” value (Dose 10 mg/kg p.o.) was 74.1%.

Regarding `CCCc1c(OCCCSc2ccc(C(=O)CCC#N)cc2)ccc(C(C)=O)c1O` [Example 40, 4-(3-(4-acetyl-3-hydroxy-2-propyl-phenoxy)propylthio)-gamma-oxobenzenebutyronitrile], the “% Inhib.” value (Dose 30 mg/kg p.o.) turned out to be 89.4%.

For `CCCc1c(OCCCSc2ccc([C@H](O)[C@@H](C)CC(=O)O)cc2)ccc(C(C)=O)c1O` (relative stereo) [Example 78, (Beta S^*, gamma R^*)-sodium 4-(3-(4-acetyl-3-hydroxy-2-propylphenoxy)propylthio)-gamma-hydroxy-beta-methyl-benzenebutanoate], the “% Inhib.” value (Dose 0.03 mg/kg p.o.) is listed as 14.1%; the “% Inhib.” value (Dose 0.1 mg/kg p.o.) is given as 27.1%; the “% Inhib.” value (Dose 0.3 mg/kg p.o.) is reported as 50.1%; the “% Inhib.” value (Dose 1 mg/kg p.o.) worked out at 70.1%; the “% Inhib.” value (Dose 3 mg/kg p.o.) was 74.1%; the “% Inhib.” value (Dose 10 mg/kg p.o.) turned out to be 76.1%.
